What was measured:
Cdc7/ASK = Cdc7/ASK (Homo sapiens, UniProt O00311); test: Cdc7 biochemical assay Method 1: 384 well ELISA, MCM2 whole protein substrate, Phospho MCM2 (S53) antibody; set-up: purchased; details: ATP 2 μM, 90 minutes, read-out: Biochemical method 1 (pIC50) (converted)
Description: This protocol describes a method for assaying Cdc7/ASK for activity. The assay is a 384 well ELISA assay, utilising a whole protein substrate (MCM2) and an antibody against Phospho MCM2 (S53). This site is thought to be specific to Cdc7/ASK phosphorylation and the assay has been validated using knockout mutants.
• TBS: 25 mM Tris pH 7.2, 150 mM NaCl. (Dilute 10× stock by 1:10). • Wash Buffer: TBS+0.05% Tween 20. (Add 100 mL 1 M Tris pH 7.2, 120 mL 5 M NaCl and 2 mL 100% Tween 20 per 4 L). • Kinase Reaction Buffer: 50 mM Tris-HCl pH 8.5, 10 mM MgCl2, 1 mM DTT. (Dilute 10× stock by 1:10 and add 100 μL 1M DTT per 100 mL prior to assay). • Diethanolamine Buffer: 1 M diethanolamine pH 9.8, 0.5 mM MgCl2. • Stop Solution: 1 M NaOH. • MCM2 was expressed and purified in-house and used in the assay at a final assay concentration of 436 ng/well. • Cdc7/ASK is purchased from commercial suppliers and used in the assay at a final assay concentration of 37.97 ng/well or 20.63 nM. • ATP used as a final assay concentration of 2 μM. • Primary Antibody: Rabbit anti-Phospho MCM2 (S53 Antibody (BL3353)), is purchased from commercial suppliers at 0.2 mg/mL and used at a final assay concentration by diluting 1:800 in TBS. • Secondary Antibody: Anti-Rabbit/AP Antibody is supplied is purchased from commercial suppliers at 1 mg/mL and used at a final assay concentration by diluting 1:2000 in TBS. • Development Reagent: Dissolve one 20 mg PNPP tablet (Sigma, product N2765, 20 mg per tablet) per 20 mL diethanolamine Buffer (or one 5 mg PNPP tablet per 5 mL diethanolamine buffer). Cover in foil and leave shaking on a roller shaker at room temperature for up to an hour to dissolve. Methods • 1. Add 20 μL 1× working stock of Substrate (MCM2) in TBS to all wells of a clear, 384 well, Nickel-chelate microplate to give a final concentration of 250 ng/well. Incubate at room temperature for at least 1 hour. Plates can be pre-coated for 1 hour and stored at 4° C. for up to 8 days. • 2. Wash with TBS+0.05% Tween 20 (80 μL x 3). • 3. Add 2 μL 10× test compounds, including the positive control, in 40% DMSO/water to ‘test’ wells. Add 2 μL 40% DMSO/water to ‘control’ and ‘blank’ wells. The final DMSO concentration will be 4%. • 4. Add 13 μL CDCl7/ASK Kinase (1.5× stock) in Kinase Reaction Buffer to ‘test’ and ‘control’ wells to give a final concentration of […]. Add 13 μL Kinase Reaction Buffer to ‘blank’ wells. • 5. Add 5 μL ATP (4× stock) in Kinase Reaction Buffer to all wells to give a final concentration of 2 μM. • 6. Incubate at room temperature for 90 minutes. • 7. Wash with TBS+0.05% Tween 20 (80 μL x 3). • 8. Add 20 μL 1× working solution of Primary Antibody in TBS to all wells. Incubate at room temperature for 30 minutes. • 9. Wash with TBS+0.05% Tween 20 (80 μL x 3). • 10. Add 20 μL 1× working solution of Secondary Antibody in TBS to all wells. Incubate at room temperature for 30 minutes. • 11. Wash with TBS+0.05% Tween 20 (80 μL x 3). • 12. Add 20 μL 1× Development Reagent to all wells. • 13. Incubate at room temperature for 2 hours. Stop the reaction by adding 20 μL Stop Solution to all wells and record Absorbance on a Pherastar plate reader.
Percentage inhibition values were calculated from absorbance values, using the no compound (DMSO) and no enzyme control values as 0% and 100% inhibition, respectively. IC50 determination was performed with ExcelFit software (IDBS) using curve fit 205. Z′ factors were determined for each plate tested and were all above 0.5.

Cdc7/Dbf4 = Cdc7/Dbf4 (Homo sapiens, UniProt O00311); test: Cdc7 biochemical assay Method 2: Cdc7/Dbf4 Enzyme TR-FRET Assay measuring pS40MCM2; details: pS40 MCM2 peptide, 1 μM ATP, 25° C., 120 minutes, read-out: Biochemical Method 2 (pIC50) (converted)
Description: This protocol describes a method for assaying a compounds' ability to inhibit Cdc7 activity by measuring pS40MCM2 levels in a Cdc7/Dbf4 Enzyme TR-FRET Assay.
2.5 nM Cdc7/Dbf4 was incubated with 100 nM of biotin-labelled peptide 35-TDALTS(pS)PGRDLP in the presence of 1 μM ATP at 25° C. for 120 minutes. The phosphorylation of the peptide was detected using TR-FRET. Anti-Mcm2 (pS40) antibody, Terbium anti-rabbit secondary antibody and Streptavidin-Alexa Fluor488 form the detection system.

Cdc7 [1] = molecular target: T1, Cdc7 (Homo sapiens, UniProt O00311); test: Cdc7 cell pharmacodynamics assay Method 1: pS53MCM2 levels in HCT116 cells; type: cell-based; set-up: endogenous in cells; details: 6 hours treatment, read-out: Biomarker Method 1 (pEC50) (converted)
Excerpt: This protocol describes a method to investigate the inhibition of Cdc7 activity of compounds by measuring pS53MCM2 levels in cells after treatment.
• HCT116 cells (wild type P53 positive) • McCoys 5A media (PAA Laboratories Ltd, E15-022) • 10% FCS (Sera Laboratories International Ltd, EU000F Batch: 108005) • 100× L-Glutamine (Invitrogen, 25030-024) • D-PBS without CaCl2 and MgCl2 (Invitrogen, ref. 14190-094) • Trypsin/EDTA (Invitrogen 25300-054) • 2% BSA in PBS • Cell Extraction Buffer (Invitrogen FNN0011) • Protease inhibitor cocktail (Sigma P-2714) • PMSF 0.3M stock in DMSO (Sigma P7626) • Antibody—rabbit pMCM2 Ser53 (Bethyl #A300-756A) • Antibody—goat MCM2 (Bethyl #A300-122A) • Antibody—goat Anti Rabbit IgG HRP (Perbio Science UK Ltd 31462) • 1×PBS • FACE Wash buffer (0.02% Triton X100 in 1×PBS) • SuperSignal ELISA Pico Chemiluminescent Substrate (Perbio Science UK Ltd 37070) Method • 72 hours prior to the start of the experiment plate 1×10^6 HCT116 cells in a 150 cm^2 flask in complete McCoys 5A media (+10% FCS+1× L-glutamine). • Plate 20,000 HCT116 cells per well in standard TC treated 96 well plate in 100 μL complete McCoys 5A media. • Allow cells to settle overnight in incubator set at 37° C. and 5% CO2. • Remove intermediate plate from fridge and place at 37° C. overnight to allow to equilibrate. • Cell treatment: cell assay plate 100 μL; daughter to cell transfer volume 3.33 μL; daughter volume 45 μL; mother plate to daughter volume 5 μL. • Once all cells are treated remove the cells to the incubator and incubate for 6 hours. • Dilute the capture antibody (total MCM2 #A300-122A) 1 in 250 in the required volume of PBS (5 mL per assay plate) and add 50 μL to each well of a Hybond plate excluding wells 12E to 12H. In these wells add 50 μL PBS. Seal the plate and incubate at room temperature fora minimum of 2 hours. • Defrost aliquot of Invitrogen Cell Extraction Buffer (FNN0011) on ice and supplement with appropriate volume of both Sigma protease inhibitor cocktail (P-2714) and PMSF (final cone 1 mM from a […] in DMSO). • After the 6 hour cell treatment time tap out the media from the assay plates and place them in the −70° C. freezer for at least 5 minutes. • Remove plates from freezer and add 20 μL of ice cold complete lysis buffer on ice. Incubate cells for 30 minutes at 4° C. • Add 80 μL per well 2% BSA. • Transfer 80 μL from the lysis plate to the same wells in the capture/ELISA plate. Cover with plate seal and incubate plates overnight at 4° C. • Wash plates with PBS, remove any residual remaining liquid and add 50 μL per well of pMCM2 Ser53 antibody (#A300-756A) diluted 1 in 100 in 2% BSA. Cover plate and incubate at room temperature for 2 hours with gentle shaking. • Wash plates with PBS, remove any residual remaining liquid and Incubate with 50 μL goat anti rabbit antibody (1 in 800 dilution in 2% BSA) for 1 hour at room temperature. • Wash plates with PBS, remove any residual remaining liquid and add 50 μL mixed SuperSignal Pico substrate. • Incubate each plate for 5 minutes at room temperature shielding the plates from direct light (with a cover plate). Read plates with the luminescent detection. Method 2

Cdc7 [2] = molecular target: T1, Cdc7; test: Cdc7 cell pharmacodynamics assay Method 2: pS40MCM2 levels in HCT116 cells; type: cell-based; set-up: endogenous in cells; details: 18 hours treatment, read-out: Biomarker Method 2 (pEC50) (converted)
Excerpt: This protocol describes a method to investigate the inhibition of Cdc7 activity by measuring pS40MCM2 levels in cells, after treatment with compounds.
• HCT116 cells (ATCC, #CCL-247) • McCoys 5A with L-glutamine (Cellgro, #10-050-CV) • 10% FCS (Cellgro, #35-010-CV) • D-PBS without CaCl2 and MgCl2 (Cellgro, #21-031-CV) • Trypsin/EDTA (Cellgro, #25-052-CL) • BSA (Calbiochem, 126593) • Cell Extraction Buffer (Invitrogen FNN0011) • Protease inhibitor cocktail (Sigma P-2714) • PMSF 0.3M stock in DMSO (Sigma P7626) • Antibody—rabbit pMCM2 Ser40 (Abeam, AB133243) • Antibody—goat MCM2 (Bethyl #A300-122A) • Antibody—goat Anti Rabbit IgG HRP (Thermo, 31462) • SuperSignal ELISA Pico Chemiluminescent Substrate (Perbio Science UK Ltd 37069) • 10×PBS (Growcells, MRGF-6236) • Triton X100 (Sigma, P-T8787) • DMSO (Fisher, D128-1) • 2-Propanol (J. T. Baker, 9095-03) Method • Seed 1×10^6 HCT116 cells into each of two 175 cm^2 flask containing 30 mL Cell Growth Media and incubate at 37° C., 5% CO2 for 3 days. • Harvest the cells from one T175 cm^2 flask and count. • Dilute with Cell Growth Media to a cell density of 2×10^5. Dispense 100 μL to each well (20,000 HCT116 cells/well) of TC treated 96-well plate(s). • Allow cells to settle overnight in incubator set at 37° C. and 5% CO2. • Cell treatment: Transfer 0.25 μL/well from the compound plate to the wells of the cell plate(s). This is a 1:400 dilution of compound in the assay. • Once all cells are treated place the cells back to the incubator and incubate for 18 hours. • Dilute the capture antibody (total MCM2 #A300-122A) 1 in 250 in the required volume of PBS (5 mL per assay plate, plus 5 mL for dead volume) and add 50 μL to each well of a Hybond plate except wells A12 & B12. Seal the plate and incubate at room temperature fora minimum of 2 hours. • Defrost aliquot of Invitrogen Cell Extraction Buffer (FNN0011) on ice and supplement with appropriate volume of both Sigma protease inhibitor cocktail (P-2714) and PMSF (final cone 1 mM from a 1 M stock in DMSO). • After the 6 hour or 18 hour cell treatment time, tap out the media from the assay plates and place them in the −70° C. freezer for at least 5 minutes. • Flick out the remaining liquid in the previously prepared capture Ab plate(s) and add 200 μL 2% BSA per well. Incubate for 1 hour at room temperature. • Remove plates from freezer and add 20 μL of ice cold complete lysis buffer. Incubate cells for 30 minutes at 4° C. • Add 30 μL per well 2% BSA • At the end of the 1 hour incubation, wash the Capture/ELISA plate(s) with Wash Buffer on the BioTek plate washer. • Transfer 40 μL per well of the lysis plate(s) to the same wells in the Capture/ELISA plate. Incubate cells overnight at 4° C. • At the end of the overnight incubation, wash the ELISA plate(s) with Wash Buffer on BioTek plate washer. • Prepare Detection Antibody Buffer and dispense 50 μL to all wells of ELISA plate(s) except wells G1 & H1. Cover plate and incubate at room temperature for 2 hours with gentle shaking. • At the end of the 2 hour incubation, wash the ELISA plate(s) with Wash Buffer on the BioTek plate washer. • Prepare the Conjugated Antibody Buffer and dispense 50 μL to all wells of ELISA plate(s). • Cover the plate and incubate at room temperature for 1 hour with gentle shaking. • At the end of the 1 hour incubation, wash the ELISA plate(s) with Wash Buffer on the BioTek plate washer. • Prepare Substrate Buffer and dispense 50 μL to all wells of ELISA plate(s). • Incubate for a minimum of 10 minutes and read plates on the EnVision 2100 Multilabel Reader (Mirror: Luminescence (404) & Luminescence 700 (212); Measurement Height: 6.5 mm; Measurement Time: 0.2 s). Method 3

Sequence of Cdc7/Dbf4 (O00311 whole entry): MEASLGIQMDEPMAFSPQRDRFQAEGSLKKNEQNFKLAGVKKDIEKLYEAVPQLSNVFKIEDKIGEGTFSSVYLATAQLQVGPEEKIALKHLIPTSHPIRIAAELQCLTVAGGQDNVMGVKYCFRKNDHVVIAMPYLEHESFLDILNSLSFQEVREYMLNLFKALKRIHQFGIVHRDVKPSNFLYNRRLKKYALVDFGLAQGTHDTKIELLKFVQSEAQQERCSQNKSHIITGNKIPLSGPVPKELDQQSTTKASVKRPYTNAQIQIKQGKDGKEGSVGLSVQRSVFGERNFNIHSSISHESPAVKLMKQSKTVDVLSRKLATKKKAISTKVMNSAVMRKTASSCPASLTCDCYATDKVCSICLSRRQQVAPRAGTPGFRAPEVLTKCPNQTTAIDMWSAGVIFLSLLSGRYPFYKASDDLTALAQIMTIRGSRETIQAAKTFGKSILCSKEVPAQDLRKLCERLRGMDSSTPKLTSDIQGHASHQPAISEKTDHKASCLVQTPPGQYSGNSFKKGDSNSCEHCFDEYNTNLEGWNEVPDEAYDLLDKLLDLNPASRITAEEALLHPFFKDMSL
Sequence of Cdc7/Dbf4 (Q9UBU7 whole entry partner): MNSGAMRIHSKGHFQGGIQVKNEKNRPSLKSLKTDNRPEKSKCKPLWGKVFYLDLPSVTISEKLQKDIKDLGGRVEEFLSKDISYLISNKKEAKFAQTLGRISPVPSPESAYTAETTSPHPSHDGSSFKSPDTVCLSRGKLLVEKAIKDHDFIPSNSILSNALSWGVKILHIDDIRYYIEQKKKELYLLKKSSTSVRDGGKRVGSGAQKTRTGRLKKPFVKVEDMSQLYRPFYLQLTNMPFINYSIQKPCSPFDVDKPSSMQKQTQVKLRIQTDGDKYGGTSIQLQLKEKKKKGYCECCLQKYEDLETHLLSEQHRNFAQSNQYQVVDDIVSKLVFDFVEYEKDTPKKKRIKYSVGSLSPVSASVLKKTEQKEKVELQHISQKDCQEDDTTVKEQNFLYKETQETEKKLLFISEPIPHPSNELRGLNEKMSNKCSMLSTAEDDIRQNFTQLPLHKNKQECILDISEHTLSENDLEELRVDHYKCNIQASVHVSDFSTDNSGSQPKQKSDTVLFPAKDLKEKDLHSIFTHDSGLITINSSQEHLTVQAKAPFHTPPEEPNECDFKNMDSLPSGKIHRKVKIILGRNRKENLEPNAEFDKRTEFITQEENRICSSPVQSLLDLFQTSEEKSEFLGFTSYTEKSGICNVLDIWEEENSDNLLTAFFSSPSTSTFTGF
T1 sequence (O00311 whole entry): as the sequence (O00311 whole entry) above
T1 sequence (Q9UBU7 whole entry partner): as the sequence (Q9UBU7 whole entry partner) above
Sequence of Cdc7/ASK (O00311 whole entry): as the sequence (O00311 whole entry) above
Sequence of Cdc7/ASK (Q9UBU7 whole entry partner): as the sequence (Q9UBU7 whole entry partner) above

Compound	IC50 (Cdc7/ASK) [nM]	IC50 (Cdc7/Dbf4) [nM]	EC50 (Cdc7 [1]) [nM]	EC50 (Cdc7 [2]) [nM]
Cc1ncsc1-c1nc(N2CCN[C@@H](C(C)C)C2)c(Cl)c(=O)[nH]1 [Compound 39, 5-chloro-4-[(3S)-3-isopropylpiperazin-1-yl]-2-(4-methylthiazol-5-yl)-1H-pyrimidin-6-one]	21.4	7.41	339	–
C[C@@H]1COCCN1c1nc(-c2cnn3ccccc23)[nH]c(=O)c1Cl [Compound 54, 5-chloro-4-[(3R)-3-methylmorpholin-4-yl]-2-pyrazolo[1,5-a]pyridin-3-yl-1H-pyrimidin-6-one]	–	72.4	–	–
Cc1[nH]ncc1-c1nc(N2CCOCC2)c(Cl)c(=O)[nH]1 [Compound 51, 5-chloro-2-(5-methyl-1H-pyrazol-4-yl)-4-morpholino-1H-pyrimidin-6-one]	–	5.89	–	–
Cc1[nH]ncc1-c1nc(C2CCOCC2)c(Cl)c(=O)[nH]1 [Compound 16, 5-chloro-2-(3-methyl-1H-pyrazol-4-yl)-4-tetrahydropyran-4-yl-1H-pyrimidin-6-one]	2.75	7.24	–	–
CC1CNCCN1c1nc(-c2c[nH]c3ncccc23)[nH]c(=O)c1Cl (stereo in doubt) [Compound 55, 5-chloro-4-[(2R)-2-methylpiperazin-1-yl]-2-(1H-pyrrolo[2,3-b]pyridin-3-yl)-1H-pyrimidin-6-one 2,2,2-trifluoroacetic acid]	–	–	–	100

Reference: US11766434B2, “Pyrimidinone derivatives as CDC7 inhibitors” (Cancer Research Technology Limited, priority 2016, dated 2023)
